From PubChem BioAssay AID2060883 (Molecular Pharmacology Branch, DTP, NCI, 2025)
Values joined by “and” are separate entries in the source; they are usually repeats but may differ in a detail not shown here. Equal entries are not always repeated.

Test system: 843782-103-R-J1-PDC complex spheroid viability
Assay: Anticancer human tumor 843782-103-R-J1-PDC patient-derived lung adenocarcinoma cell line growth inhibition [RAS]
Details: for viability, T/C: stronger effect = lower value
Source text: RAS pathway inhibitors in Combinations in Complex Spheroids
A high-throughput screen of multi-cell type tumor spheroids was designed to identify active combinations of RAS pathway inhibitors and targeted small molecules. Complex spheroids include a stromal component modeled by human endothelial cells (HUVEC) and fibroblasts modeled by human mesenchymal stem cells (MSCs). The concentration ranges selected for each drug and investigational agent were based upon clinically achievable concentrations if the clinical Cmax of the agent was known.
Compounds. The drugs and investigational agents: abemaciclib (NSC768073), cobimetinib (NSC768068), divarasib (GDC6063, NSC841802), docetaxel (NSC628503), GDC-1971 (RLY-1971, NSC841576), gemcitabine (NSC613327), inavolisib (NSC800729), ipatasertib (NSC767898), KB-0742 (NSC834161), MRTX-1133 (NSC836407), osimertinib (NSC779217), RMC-4630 (NSC839698), RMC-6236 (NSC851965), RMC-6291 (NSC852671), Ro-3306 (NSC812927), sapanisertib (NSC764658), SN-38 (NSC673596), staurosporine (NSC755774), SY5609 (NSC837396), and tovorafenib (DAY101, NSC766906), were obtained from the National Cancer Institute (NCI) Developmental Therapeutics Program Chemical Repository. The FDA-approved anticancer drug set is available from the NCI Developmental Therapeutics Program. […] The stock solutions were prepared in dimethyl sulfoxide (DMSO, Sigma-Aldrich, St. Louis, MO, cat. D2650) at 800-fold the tested concentration and stored at -70 degrees C prior to their use. All drugs and investigational agents were tested over a range starting from a high concentration at or near the clinical Cmax and decreasing in half-log increments. If the clinical Cmax for an agent had not been determined, the highest concentration tested was 10 microM.
Cell Culture. All cells were maintained in an incubator at 37 degrees C and 5% CO2 with 95% humidity. The PDC lines were cultured according to standard operating procedures established by the NCI PDMR. All PDCs were thawed and cultured in Matrigel-coated flasks prepared with a working solution of 1X Ham's F-12 nutrient mix, without supplementation (Invitrogen, Waltham, MA, cat. 11765054), 100 U/mL penicillin-streptomycin (Invitrogen, cat. 15140122), and 2.5% Matrigel (Corning Inc., Corning, NY, cat. 354248) for the first three passages. The 362531-283-R-J2-PDC and 782815-120-R-J1-PDC lines were cultured in 6C/Colon 1B media, which includes advanced DMEM/F-12 (Thermo Fisher Scientific, cat. 12634028), 10 mM HEPES (Thermo Fisher Scientific, cat. 15630080), 1X GlutaMAX supplement (Thermo Fisher Scientific, cat. 35050061), 0.1 mg/mL primocin (InvivoGen, San Diego, CA, cat. ant-pm-2), 10% defined fetal bovine serum, heat inactivated (HyClone Laboratories Inc., Logan, UT, cat. SH30070.03HI), 50% L-WRN conditioned media (ATCC, cat. CRL-3276), 1.25 mM N-Acetyl-L-cysteine (Sigma-Aldrich, cat. A9165), 10 mM nicotinamide (Sigma-Aldrich, cat. N0636), 1X B-27 supplement (Thermo Fisher Scientific, cat. 17504044), 1X N-2 supplement (Thermo Fisher Scientific, cat. 17502048), 50 ng/mL human EGF (Thermo Fisher Scientific, cat. PHG0311), and 10 microM Y-27632 dihydrochloride (Tocris Bioscience, cat. 1254). The K12877-001-R-J1-PDC line was cultured in 6I media, which includes all 6C/Colon 1B media plus 10 ng/mL human FGF-10 (PeproTech, cat. 100-26), 1 ng/mL human FGF-2 (PeproTech, cat. 100-18B), 1 µM prostaglandin E2 (Tocris Bioscience, cat. 2296), […] hydrocortisone (Sigma-Aldrich, cat. H4001), and […] bovine insulin (Sigma-Aldrich, cat. I6634). The K86415-001-R-J1-PDC line was cultured in 6D media, which includes all 6C/Colon 1B media components minus the L-WRN conditioned media. The 485176-168-R4-J1-PDC was cultured in PANC media, which includes all 6C/Colon 1B media plus 100 ng/mL human FGF-10 (PeproTech, cat. 100-26), 500 nM SB-431542 (Selleckchem, cat. S1067), and 10 nM gastrin (Tocris Bioscience, cat. 3006). […]
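Note: viability read after seven days of compound exposure.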

Which IC50 (curve of first compound, second compound 0.000949 µM) does the source give for `Cc1nc(N2CCC3(CC2)COC(C)C3N)c(CO)nc1Sc1ccnc(N)c1Cl` (centres undefined) + CCn1c(-c2cccnc2C(C)OC)c2c3cc(ccc31)N1CCOC(CC(NC(=O)C(C(C)C)N(C)C(=O)C3(F)CCN(C(=O)C#CC(C)(C)N(C)C)CC3)C(=O)N3CCCC(N3)C(=O)OCC(C)(C)C2)C1 here?
The IC50 was 55 nM.

And the IC50 (curve of first compound, second compound 0.003 µM)?
The IC50 was 50.4 nM.

What about the IC50 (curve of first compound, second compound 0.00949 µM) of the same molecule?
Its IC50 is 53.8 nM.

And the IC50 (curve of first compound, second compound 0.03 µM)?
The IC50 was 44.4 nM.

What about the IC50 (curve of first compound, second compound 0.0949 µM) of the same molecule?
Its IC50 is 45.3 nM.

And the IC50 (curve of first compound, second compound 0.3 µM)?
Its IC50 is 36.9 nM.

What about the viability, T/C (second compound 0.000949 µM, first compound 0.0316 µM) of the same molecule?
The viability, T/C was 57.4%.

What about the viability, T/C (second compound 0.000949 µM, first compound 0.1 µM) of the same molecule?
The viability, T/C was 43.4%.

And the viability, T/C (second compound 0.000949 µM, first compound 0.316 µM)?
Its viability, T/C is 31.3%.

And the viability, T/C (second compound 0.000949 µM, first compound 1 µM)?
Its viability, T/C is 21%.

And the viability, T/C (second compound 0.000949 µM, first compound 3.16 µM)?
Its viability, T/C is 20.8%.

What about the viability, T/C (second compound 0.000949 µM, first compound 10 µM) of the same molecule?
The viability, T/C was 17.4%.

What about the viability, T/C (second compound 0.003 µM, first compound 0.0316 µM) of the same molecule?
Its viability, T/C is 55.1%.

And the viability, T/C (second compound 0.003 µM, first compound 0.1 µM)?
The viability, T/C was 42%.

And the viability, T/C (second compound 0.003 µM, first compound 0.316 µM)?
The viability, T/C was 31.6%.

What about the viability, T/C (second compound 0.003 µM, first compound 1 µM) of the same molecule?
The viability, T/C was 22.2%.

What about the viability, T/C (second compound 0.003 µM, first compound 3.16 µM) of the same molecule?
Its viability, T/C is 17.3%.

What about the viability, T/C (second compound 0.003 µM, first compound 10 µM) of the same molecule?
Its viability, T/C is 20.6%.

What about the viability, T/C (second compound 0.00949 µM, first compound 0.0316 µM) of the same molecule?
Its viability, T/C is 55.1%.

What about the viability, T/C (second compound 0.00949 µM, first compound 0.1 µM) of the same molecule?
The viability, T/C was 44.2%.

What about the viability, T/C (second compound 0.00949 µM, first compound 0.316 µM) of the same molecule?
The viability, T/C was 28.6%.

What about the viability, T/C (second compound 0.00949 µM, first compound 1 µM) of the same molecule?
Its viability, T/C is 21.3%.

What about the viability, T/C (second compound 0.00949 µM, first compound 3.16 µM) of the same molecule?
The viability, T/C was 23.1%.

What about the viability, T/C (second compound 0.00949 µM, first compound 10 µM) of the same molecule?
The viability, T/C was 16.4%.

What about the viability, T/C (second compound 0.03 µM, first compound 0.0316 µM) of the same molecule?
Its viability, T/C is 53.8%.

And the viability, T/C (second compound 0.03 µM, first compound 0.1 µM)?
The viability, T/C was 40.2%.

What about the viability, T/C (second compound 0.03 µM, first compound 0.316 µM) of the same molecule?
Its viability, T/C is 34.5%.

What about the viability, T/C (second compound 0.03 µM, first compound 1 µM) of the same molecule?
The viability, T/C was 27.6%.

What about the viability, T/C (second compound 0.03 µM, first compound 3.16 µM) of the same molecule?
Its viability, T/C is 18.6%.

What about the viability, T/C (second compound 0.03 µM, first compound 10 µM) of the same molecule?
Its viability, T/C is 17.8%.

And the viability, T/C (second compound 0.0949 µM, first compound 0.0316 µM)?
Its viability, T/C is 55.4%.

What about the viability, T/C (second compound 0.0949 µM, first compound 0.1 µM) of the same molecule?
The viability, T/C was 37%.

And the viability, T/C (second compound 0.0949 µM, first compound 0.316 µM)?
The viability, T/C was 34.3%.

What about the viability, T/C (second compound 0.0949 µM, first compound 1 µM) of the same molecule?
The viability, T/C was 24.1%.

And the viability, T/C (second compound 0.0949 µM, first compound 3.16 µM)?
Its viability, T/C is 19.4%.

What about the viability, T/C (second compound 0.0949 µM, first compound 10 µM) of the same molecule?
Its viability, T/C is 23.6%.

And the viability, T/C (second compound 0.3 µM, first compound 0.0316 µM)?
Its viability, T/C is 51.3%.

And the viability, T/C (second compound 0.3 µM, first compound 0.1 µM)?
Its viability, T/C is 42.1%.

What about the viability, T/C (second compound 0.3 µM, first compound 0.316 µM) of the same molecule?
Its viability, T/C is 31.6%.

And the viability, T/C (second compound 0.3 µM, first compound 1 µM)?
The viability, T/C was 22.6%.

And the viability, T/C (second compound 0.3 µM, first compound 3.16 µM)?
The viability, T/C was 20.8%.

What about the viability, T/C (second compound 0.3 µM, first compound 10 µM) of the same molecule?
The viability, T/C was 21.4%.

For `C[C@@H](NC(=O)c1ncnc(N)c1Cl)c1ncc(C(=O)Nc2cc(C(F)(F)F)c(Cl)cn2)s1`, which viability, T/C (compound 0.0316 µM) is on record?
Its viability, T/C is 103% and 104% and 109% (2×).

What about the viability, T/C (compound 0.1 µM) of the same molecule?
The viability, T/C was 105% [middle of 4 runs].

What about the viability, T/C (compound 0.316 µM) of the same molecule?
The viability, T/C was 99.7% [middle of 4 runs].

What about the viability, T/C (compound 1 µM) of the same molecule?
Its viability, T/C is 104% (2×) and 113% and 98%.

And the viability, T/C (compound 3.16 µM)?
Its viability, T/C is 109% [middle of 4 runs].

What about the viability, T/C (compound 10 µM) of the same molecule?
Its viability, T/C is 103% [middle of 4 runs].

What about the IC50 (curve of compound) of the same molecule?
Its IC50 is > 10000 nM.
